In patent US10670605B2, “Cysteine reactive probes and uses thereof” (The Scripps Research Institute, priority 2015, dated 2020):

Tests used:
Assay in all cases: Competitive isoTOP-ABPP, cell lysates
Type in all cases: binding
CDK5 C157 (Q00535) = CDK5 C157 (Q00535) (Homo sapiens, UniProt Q00535); details: 500 μm
CYR61 C39 (O00622) = biological target: T1, CYR61 C39 (O00622) (Homo sapiens, UniProt O00622); details: 500 μm, in-vitro_ramos_231
T1 sequence (O00622 25-381): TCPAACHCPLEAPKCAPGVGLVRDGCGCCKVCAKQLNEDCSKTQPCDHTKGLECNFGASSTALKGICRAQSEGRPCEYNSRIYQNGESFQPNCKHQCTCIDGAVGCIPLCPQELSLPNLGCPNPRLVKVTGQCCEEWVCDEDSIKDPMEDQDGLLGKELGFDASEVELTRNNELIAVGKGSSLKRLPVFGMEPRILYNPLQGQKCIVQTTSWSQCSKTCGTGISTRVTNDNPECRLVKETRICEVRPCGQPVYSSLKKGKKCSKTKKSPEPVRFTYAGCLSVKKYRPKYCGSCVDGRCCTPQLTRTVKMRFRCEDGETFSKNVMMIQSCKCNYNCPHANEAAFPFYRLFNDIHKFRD

LRBA C1704 (P50851) = LRBA C1704 (P50851) (Homo sapiens, UniProt P50851); details: 500 μm, in-vitro_ramos
MLTK C22 (Q9NYL2) = MLTK C22 (Q9NYL2) (Homo sapiens, UniProt Q9NYL2); details: 500 μm, in-vitro_ramos_231
CASP8 C360 (Q14790) = CASP8 C360 (Q14790) (Homo sapiens, UniProt Q14790); details: 500 μm
NR3C1 C302 (P04150) = biological target: T2, NR3C1 C302 (P04150) (Homo sapiens, UniProt P04150); details: 500 μm
T2 sequence (P04150 1-777): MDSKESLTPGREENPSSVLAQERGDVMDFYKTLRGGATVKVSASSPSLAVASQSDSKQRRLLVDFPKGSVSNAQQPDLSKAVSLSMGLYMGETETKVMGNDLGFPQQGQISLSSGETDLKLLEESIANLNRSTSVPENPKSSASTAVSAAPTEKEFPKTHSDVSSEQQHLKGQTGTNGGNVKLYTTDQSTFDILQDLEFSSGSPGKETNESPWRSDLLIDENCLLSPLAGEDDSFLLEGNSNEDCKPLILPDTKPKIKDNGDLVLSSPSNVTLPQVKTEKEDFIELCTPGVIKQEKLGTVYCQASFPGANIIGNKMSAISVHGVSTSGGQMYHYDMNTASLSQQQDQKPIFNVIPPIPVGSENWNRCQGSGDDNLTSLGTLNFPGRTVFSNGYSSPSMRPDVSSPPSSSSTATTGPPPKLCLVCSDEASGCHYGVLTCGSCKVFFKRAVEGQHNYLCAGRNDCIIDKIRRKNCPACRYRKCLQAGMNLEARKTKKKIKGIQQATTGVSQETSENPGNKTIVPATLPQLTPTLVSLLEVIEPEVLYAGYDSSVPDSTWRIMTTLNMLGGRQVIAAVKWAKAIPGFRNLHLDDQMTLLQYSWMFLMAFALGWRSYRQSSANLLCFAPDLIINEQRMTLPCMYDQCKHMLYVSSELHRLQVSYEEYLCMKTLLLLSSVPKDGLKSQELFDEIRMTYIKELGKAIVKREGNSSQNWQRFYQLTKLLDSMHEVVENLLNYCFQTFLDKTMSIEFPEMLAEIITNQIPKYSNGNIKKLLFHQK

USP16 C205 (Q9Y5T5) = USP16 C205 (Q9Y5T5) (Homo sapiens, UniProt Q9Y5T5); details: 500 μm

Sequence of CASP8 C360 (Q14790) (Q14790 whole entry): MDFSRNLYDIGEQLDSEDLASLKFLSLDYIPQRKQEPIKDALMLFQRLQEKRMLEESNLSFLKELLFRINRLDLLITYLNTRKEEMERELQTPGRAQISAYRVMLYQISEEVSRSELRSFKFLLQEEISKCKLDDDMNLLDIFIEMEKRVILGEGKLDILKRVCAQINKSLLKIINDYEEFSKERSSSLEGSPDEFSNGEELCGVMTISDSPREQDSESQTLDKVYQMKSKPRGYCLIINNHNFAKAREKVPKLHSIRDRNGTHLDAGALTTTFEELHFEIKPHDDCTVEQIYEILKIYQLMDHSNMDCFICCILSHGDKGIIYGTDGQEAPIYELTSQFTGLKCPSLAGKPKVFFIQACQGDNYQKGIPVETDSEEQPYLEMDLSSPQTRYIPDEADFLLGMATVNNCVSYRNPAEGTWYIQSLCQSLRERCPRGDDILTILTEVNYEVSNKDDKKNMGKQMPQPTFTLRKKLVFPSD
Sequence of CDK5 C157 (Q00535) (Q00535 whole entry): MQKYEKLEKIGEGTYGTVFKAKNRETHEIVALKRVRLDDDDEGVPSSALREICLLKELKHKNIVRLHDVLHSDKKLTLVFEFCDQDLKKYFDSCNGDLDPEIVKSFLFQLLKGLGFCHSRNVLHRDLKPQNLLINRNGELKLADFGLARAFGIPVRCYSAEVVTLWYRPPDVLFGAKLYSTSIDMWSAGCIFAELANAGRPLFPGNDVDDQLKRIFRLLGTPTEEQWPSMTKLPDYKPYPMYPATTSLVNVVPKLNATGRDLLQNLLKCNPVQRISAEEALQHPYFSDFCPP
Sequence of LRBA C1704 (P50851) (P50851 whole entry): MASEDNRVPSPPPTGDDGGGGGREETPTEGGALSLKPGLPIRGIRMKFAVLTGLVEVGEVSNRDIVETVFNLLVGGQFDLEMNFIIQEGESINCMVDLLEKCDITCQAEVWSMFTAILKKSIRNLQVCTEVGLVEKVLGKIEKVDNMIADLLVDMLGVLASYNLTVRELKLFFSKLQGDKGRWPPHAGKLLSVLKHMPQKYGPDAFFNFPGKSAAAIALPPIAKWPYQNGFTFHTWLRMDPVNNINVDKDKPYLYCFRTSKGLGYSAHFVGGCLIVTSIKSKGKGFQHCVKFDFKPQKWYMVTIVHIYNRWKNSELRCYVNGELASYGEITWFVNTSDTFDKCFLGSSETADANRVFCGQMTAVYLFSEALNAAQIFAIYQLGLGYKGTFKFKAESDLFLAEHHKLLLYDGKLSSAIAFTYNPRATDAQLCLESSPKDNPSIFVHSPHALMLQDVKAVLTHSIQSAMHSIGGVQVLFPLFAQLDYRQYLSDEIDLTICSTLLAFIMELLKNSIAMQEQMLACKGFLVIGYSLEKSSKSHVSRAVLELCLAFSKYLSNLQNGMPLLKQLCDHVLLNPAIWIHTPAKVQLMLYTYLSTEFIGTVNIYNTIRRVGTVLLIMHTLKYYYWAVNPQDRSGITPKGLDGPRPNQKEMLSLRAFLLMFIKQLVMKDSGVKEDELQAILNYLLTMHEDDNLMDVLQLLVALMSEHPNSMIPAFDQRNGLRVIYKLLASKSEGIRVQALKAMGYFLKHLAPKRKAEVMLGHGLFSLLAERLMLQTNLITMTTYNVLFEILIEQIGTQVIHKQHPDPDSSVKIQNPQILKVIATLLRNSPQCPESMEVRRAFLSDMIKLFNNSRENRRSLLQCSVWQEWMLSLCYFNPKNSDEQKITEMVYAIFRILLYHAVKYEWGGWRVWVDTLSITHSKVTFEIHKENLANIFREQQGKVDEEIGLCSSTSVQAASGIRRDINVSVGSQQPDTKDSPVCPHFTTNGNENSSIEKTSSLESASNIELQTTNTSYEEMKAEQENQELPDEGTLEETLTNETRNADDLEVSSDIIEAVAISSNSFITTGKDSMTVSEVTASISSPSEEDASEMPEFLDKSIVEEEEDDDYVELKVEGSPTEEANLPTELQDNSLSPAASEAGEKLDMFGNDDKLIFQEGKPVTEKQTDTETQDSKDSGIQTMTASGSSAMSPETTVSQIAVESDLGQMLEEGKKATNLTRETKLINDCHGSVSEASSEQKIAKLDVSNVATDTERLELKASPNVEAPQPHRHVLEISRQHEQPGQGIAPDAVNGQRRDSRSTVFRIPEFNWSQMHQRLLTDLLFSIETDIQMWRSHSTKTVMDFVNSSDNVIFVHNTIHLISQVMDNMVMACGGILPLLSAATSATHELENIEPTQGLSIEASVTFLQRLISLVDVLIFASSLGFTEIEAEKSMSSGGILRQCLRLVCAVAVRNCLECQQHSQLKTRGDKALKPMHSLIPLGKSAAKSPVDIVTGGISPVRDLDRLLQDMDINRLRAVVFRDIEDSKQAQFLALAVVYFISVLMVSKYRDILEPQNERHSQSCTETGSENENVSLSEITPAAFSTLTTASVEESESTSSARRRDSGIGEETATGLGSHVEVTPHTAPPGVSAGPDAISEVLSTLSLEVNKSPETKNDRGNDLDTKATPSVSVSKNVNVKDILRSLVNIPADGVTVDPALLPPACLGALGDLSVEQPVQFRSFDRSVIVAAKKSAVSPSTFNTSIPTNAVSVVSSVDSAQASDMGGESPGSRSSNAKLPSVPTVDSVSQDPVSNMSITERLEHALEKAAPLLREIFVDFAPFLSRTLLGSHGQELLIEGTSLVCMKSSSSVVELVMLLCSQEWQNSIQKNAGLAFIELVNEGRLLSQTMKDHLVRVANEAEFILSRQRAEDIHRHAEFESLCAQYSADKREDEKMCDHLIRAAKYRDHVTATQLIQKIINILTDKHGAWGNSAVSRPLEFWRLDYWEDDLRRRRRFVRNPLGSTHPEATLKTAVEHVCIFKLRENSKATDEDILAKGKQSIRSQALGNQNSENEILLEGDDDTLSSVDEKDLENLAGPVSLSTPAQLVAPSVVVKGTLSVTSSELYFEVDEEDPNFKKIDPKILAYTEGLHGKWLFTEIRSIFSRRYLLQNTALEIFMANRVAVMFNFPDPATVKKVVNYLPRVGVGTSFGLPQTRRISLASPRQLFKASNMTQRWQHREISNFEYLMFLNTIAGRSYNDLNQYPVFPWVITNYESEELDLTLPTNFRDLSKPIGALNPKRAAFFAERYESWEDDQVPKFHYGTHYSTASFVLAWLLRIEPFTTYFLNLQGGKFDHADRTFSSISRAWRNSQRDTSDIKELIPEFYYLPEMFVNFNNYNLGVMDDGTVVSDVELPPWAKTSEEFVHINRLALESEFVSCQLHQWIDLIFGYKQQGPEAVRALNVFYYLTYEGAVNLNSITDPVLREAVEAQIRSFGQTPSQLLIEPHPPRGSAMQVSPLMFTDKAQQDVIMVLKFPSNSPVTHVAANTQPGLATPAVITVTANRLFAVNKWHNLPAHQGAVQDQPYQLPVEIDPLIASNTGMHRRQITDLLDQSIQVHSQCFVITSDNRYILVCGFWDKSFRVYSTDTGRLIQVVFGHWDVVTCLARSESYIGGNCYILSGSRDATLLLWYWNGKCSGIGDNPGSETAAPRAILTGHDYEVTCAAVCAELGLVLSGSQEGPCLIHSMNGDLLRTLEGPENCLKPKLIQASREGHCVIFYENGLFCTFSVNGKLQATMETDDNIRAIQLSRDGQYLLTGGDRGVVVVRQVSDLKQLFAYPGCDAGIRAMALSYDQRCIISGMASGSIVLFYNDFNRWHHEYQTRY
Sequence of MLTK C22 (Q9NYL2) (Q9NYL2 whole entry): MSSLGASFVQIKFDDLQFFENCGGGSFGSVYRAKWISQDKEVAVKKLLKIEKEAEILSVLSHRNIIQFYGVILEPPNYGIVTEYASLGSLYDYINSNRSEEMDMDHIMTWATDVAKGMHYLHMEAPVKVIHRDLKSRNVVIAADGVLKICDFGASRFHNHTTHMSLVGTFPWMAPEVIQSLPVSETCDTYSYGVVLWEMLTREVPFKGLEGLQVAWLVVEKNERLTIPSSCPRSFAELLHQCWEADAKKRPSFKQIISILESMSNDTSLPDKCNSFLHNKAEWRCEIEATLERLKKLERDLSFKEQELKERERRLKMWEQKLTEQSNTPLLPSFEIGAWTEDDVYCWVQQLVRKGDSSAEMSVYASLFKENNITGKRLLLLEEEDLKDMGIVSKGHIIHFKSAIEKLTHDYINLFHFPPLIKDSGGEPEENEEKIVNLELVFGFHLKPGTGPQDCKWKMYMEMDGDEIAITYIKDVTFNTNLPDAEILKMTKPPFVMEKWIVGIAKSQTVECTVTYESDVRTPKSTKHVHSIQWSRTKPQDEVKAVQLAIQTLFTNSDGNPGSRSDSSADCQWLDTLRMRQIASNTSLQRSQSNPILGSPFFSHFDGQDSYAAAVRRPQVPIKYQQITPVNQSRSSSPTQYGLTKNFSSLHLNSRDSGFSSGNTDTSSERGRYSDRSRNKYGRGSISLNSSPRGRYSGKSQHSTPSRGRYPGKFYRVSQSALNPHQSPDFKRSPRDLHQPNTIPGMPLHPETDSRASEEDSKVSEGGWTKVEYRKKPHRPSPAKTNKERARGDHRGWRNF

Question: Which “isoTOP-ABPP reactivity ratio, Q00535_C157” value (CDK5 C157 (Q00535); in-vitro_ramos) does the source give for `C=CC(=O)N(Cc1cccnc1)c1cc(C(F)(F)F)cc(C(F)(F)F)c1` [compound 31] here?
Answer: 1.1

Question: What about the “isoTOP-ABPP reactivity ratio, O00622_C39” value (CYR61 C39 (O00622)) of the same compound?
Answer: 1.2

Question: And the “isoTOP-ABPP reactivity ratio, P50851_C1704” value (LRBA C1704 (P50851))?
Answer: 1.4

Question: Which “isoTOP-ABPP reactivity ratio, Q00535_C157” value (CDK5 C157 (Q00535); in-vitro_ramos) does the source give for `CC(C)(C)c1cc(NC(=O)CCl)on1` [compound 32] here?
Answer: 1.7

Question: And the “isoTOP-ABPP reactivity ratio, Q00535_C157” value (CDK5 C157 (Q00535); in-vitro_ramos_231)?
Answer: 1.7

Question: And the “isoTOP-ABPP reactivity ratio, P50851_C1704” value (LRBA C1704 (P50851))?
Answer: 2.0

Question: What about the “isoTOP-ABPP reactivity ratio, Q9NYL2_C22” value (MLTK C22 (Q9NYL2)) of the same compound?
Answer: 2.1

Question: What does the source list for `O=C(CCl)N(Cc1ccc(F)cc1)C12CC3CC(CC(C3)C1)C2` [compound 34]?
Answer: isoTOP-ABPP reactivity ratio, Q00535_C157 (CDK5 C157 (Q00535); in-vitro_ramos_231): 0.7; isoTOP-ABPP reactivity ratio, Q9NYL2_C22 (MLTK C22 (Q9NYL2)): 0.8

Question: Which results are given for `O=C(CCl)Nc1ccccc1C1CCCCCC1` [compound 35]?
Answer: isoTOP-ABPP reactivity ratio, Q14790_C360 (CASP8 C360 (Q14790); in-vitro_ramos): 1.3; isoTOP-ABPP reactivity ratio, P50851_C1704 (LRBA C1704 (P50851)): 1.1; isoTOP-ABPP reactivity ratio, P04150_C302 (NR3C1 C302 (P04150); in-vitro_ramos): 0.9

Question: Which results are given for `C=CC(=O)N1CCC(c2noc3ccc(F)cc23)CC1` [compound 37]?
Answer: isoTOP-ABPP reactivity ratio, Q14790_C360 (CASP8 C360 (Q14790); in-vitro_ramos): 1.0; isoTOP-ABPP reactivity ratio, P50851_C1704 (LRBA C1704 (P50851)): 1.0; isoTOP-ABPP reactivity ratio, P04150_C302 (NR3C1 C302 (P04150); in-vitro_ramos): 0.9

Question: For `C=CC(=O)Nc1cc(C)c(Br)cc1C` [compound 40], which “isoTOP-ABPP reactivity ratio, Q9Y5T5_C205” value (USP16 C205 (Q9Y5T5); in-vitro_ramos) is on record?
Answer: 0.9

Question: With `Cc1ccc(C=C(C#N)C(=O)NCCN2CCOCC2)cc1` [compound 41] as the compound, how does the “isoTOP-ABPP reactivity ratio, Q14790_C360” value (CASP8 C360 (Q14790); in-vitro_ramos) read?
Answer: 0.8

Question: What about the “isoTOP-ABPP reactivity ratio, Q14790_C360” value (CASP8 C360 (Q14790); in-vitro_ramos_231) of the same compound?
Answer: 1.0

Question: And the “isoTOP-ABPP reactivity ratio, Q00535_C157” value (CDK5 C157 (Q00535); in-vitro_ramos_231)?
Answer: 1.5

Question: What about the “isoTOP-ABPP reactivity ratio, Q9NYL2_C22” value (MLTK C22 (Q9NYL2)) of the same compound?
Answer: 1.5

Question: And the “isoTOP-ABPP reactivity ratio, Q9Y5T5_C205” value (USP16 C205 (Q9Y5T5); in-vitro_ramos_231)?
Answer: 0.8

Question: `N#CC(=Cc1ccc(-c2ccccc2Cl)o1)C(N)=O` [compound 42] was tested. Which “isoTOP-ABPP reactivity profile ratio, Q9Y5T5_C205” value (USP16 C205 (Q9Y5T5); in-vitro_ramos) did it give?
Answer: 1.5

Question: How did the “isoTOP-ABPP reactivity profile ratio, Q00535_C157” value (CDK5 C157 (Q00535); in-vitro_ramos) turn out when `COc1cc(NC(=O)CCl)cc(OC)c1` [compound 43] was run?
Answer: 1.2

Question: What about the “isoTOP-ABPP reactivity profile ratio, Q9NYL2_C22” value (MLTK C22 (Q9NYL2)) of the same compound?
Answer: 2.9

Question: And the “isoTOP-ABPP reactivity profile ratio, P04150_C302” value (NR3C1 C302 (P04150); in-vitro_ramos_231)?
Answer: 1.5

Question: Which “isoTOP-ABPP reactivity profile ratio, Q9NYL2_C22” value (MLTK C22 (Q9NYL2)) does the source give for `CC1CCc2ccccc2N1C(=O)CCl` (centres unmarked) [compound 45] here?
Answer: 20.0

Question: Which “isoTOP-ABPP reactivity profile ratio, O00622_C39” value (CYR61 C39 (O00622)) does the source give for `C=CC(=O)N(c1ccccc1)C1CCCCC1` [compound 46] here?
Answer: 1.9

Question: What about the “isoTOP-ABPP reactivity profile ratio, Q9Y5T5_C205” value (USP16 C205 (Q9Y5T5); in-vitro_ramos_231) of the same compound?
Answer: 1.0

Question: For `O=C(CCl)N1CCc2cc(Br)ccc21` [compound 50], which “isoTOP-ABPP reactivity profile ratio, O00622_C39” value (CYR61 C39 (O00622)) is on record?
Answer: 2.3

Question: Which “isoTOP-ABPP reactivity profile ratio, Q00535_C157” value (CDK5 C157 (Q00535); in-vitro_ramos) does the source give for `O=C(CCl)Nc1cccc2ncccc12` [compound 51] here?
Answer: 1.0

Question: And the “isoTOP-ABPP reactivity profile ratio, P50851_C1704” value (LRBA C1704 (P50851))?
Answer: 1.1

Question: And the “isoTOP-ABPP reactivity profile ratio, Q9Y5T5_C205” value (USP16 C205 (Q9Y5T5); in-vitro_ramos)?
Answer: 3.2

Question: What about the “isoTOP-ABPP reactivity profile ratio, Q9Y5T5_C205” value (USP16 C205 (Q9Y5T5); in-vitro_ramos_231) of the same compound?
Answer: 1.7

Question: Which “isoTOP-ABPP reactivity profile ratio, P50851_C1704” value (LRBA C1704 (P50851)) does the source give for `O=C(CCl)Nc1ccc(-c2ccccc2)cc1` [compound 52] here?
Answer: 1.1

Question: And the “isoTOP-ABPP reactivity profile ratio, P04150_C302” value (NR3C1 C302 (P04150); in-vitro_ramos)?
Answer: 1.8

Question: `C=CC(=O)N1CCC(Cc2ccccc2)CC1` [compound 53] was tested. Which “isoTOP-ABPP reactivity profile ratio, Q00535_C157” value (CDK5 C157 (Q00535); in-vitro_ramos) did it give?
Answer: 0.8

Question: And the “isoTOP-ABPP reactivity profile ratio, Q00535_C157” value (CDK5 C157 (Q00535); in-vitro_ramos_231)?
Answer: 1.2

Question: What about the “isoTOP-ABPP reactivity profile ratio, Q9Y5T5_C205” value (USP16 C205 (Q9Y5T5); in-vitro_ramos_231) of the same compound?
Answer: 1.1
